Laboratory results published in patent US20260151375A1, “CDK2 INHIBITORS AND METHODS OF USING THE SAME” (Cedilla Therapeutics, Inc., priority 2022, published 2026).
Read-outs that look alike come from different tables or passages of the source.

Key:
Kuramochi cells = assay: IncuCyte Kuramochi Assay (cell proliferation); assay type: cell-based; settings: Kuramochi cells labeled with mApple-H2B, cell count, read-out: IncuCyte - Kuramochi RB-WT: IC50
Procedure, shortened: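 GI50 came from dose-response fits of cell-count fold change between 0 and 72 h, normalized to DMSO controls. Counts were fluorescent nuclei from live-cell images over a 10-point, ½ log series starting at 20 μM.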

CDK2/Cyclin E1 = target: T1, CDK2/Cyclin E1 (Homo sapiens, UniProt P24941); assay: ADPGLO (CDK2/E1-37 C), ADP-Glo Luminescent Kinase Assay; assay type: biochemical; settings: 0.18 nM CDK2/Cyclin E1, 100 μM ATP, Histone H1, 37° C.
T1 construct: purchased 14-475
Method: Inhibition of CDK2/Cyclin E1 activity by the presence of small molecules was evaluated using ADP-Glo Luminescent Kinase Assay (Promega). Activated CDK2/Cyclin E1 was incubated with its substrate Histone H1 (SignalChem H10-54N) in the kinase reaction buffer (100 μM ATP, 50 mM HEPES pH 7.5, 10 mM MgCl2, 1 mM EDTA, 2 mM DTT, 0.01% Brij35, 0.5 mg/mL BSA). Luminescence was recorded with an Envision plate reader (PerkinElmer).
Dose titrations of inhibitors in 100% DMSO were combined with 0.36 nM CDK2/Cyclin E1 in reaction buffer. The mixtures were incubated for 60 minutes at 37° C. before the addition of ATP and Histone H1 substrate to initiate the kinase reaction. The final conditions were 0.18 nM CDK2/Cyclin E1, 100 μM ATP, and 1.5 μM Histone H1. The reactions were incubated at 37° C. for 90 minutes before being stopped with the addition of ADP-Glo reagent. This mixture was incubated at room temperature for 60 minutes before Kinase Detection Solution is added to generate luminescence. The stopped reactions were analyzed on an Envision plate reader. The conversion ratios were normalized to yield % activity, plotted against compound concentration, and fit to a four-parameter equation to determine the IC50 for each compound.

Row | SMILES | IC50 (Kuramochi cells; 72 h) [µM] | IC50 (CDK2/Cyclin E1) [µM] | IC50 (Kuramochi cells; 72 hours) [µM]
1 | O=C(c1cncc(O)n1)N1CC(c2nnc(C(F)(F)c3ccc(Cl)c(Cl)c3)o2)C2(C1)CN(C(=O)[C@H]1CC1(F)F)C2 (stereo partly drawn) [I-112, (8-(5-((3,4-dichlorophenyl)difluoromethyl)-1,3,4-oxadiazol-2-yl)-2-((R)-2,2-difluorocyclopropane-1-carbonyl)-2,6-diazaspiro[3.4]octan-6-yl)(6-hydroxypyrazin-2-yl)methanone] | > 10 | > 10 | 
2 | CC(c1nc(C2CN(C(=O)c3cnn(Cc4ccc(C(O)C(F)(F)F)cc4)c3)CC23CN(C(=O)[C@H]2CC2(C)C)C3)no1)n1ccc(C2CCCC2)n1 (stereo partly shown) [I-113] | 0.5 to 5 | 0.5 to 5 | 
3 | CC(c1nc(C2CN(C(=O)c3cnn(Cc4nnn[nH]4)c3)CC23CN(C(=O)[C@H]2CC2(C)C)C3)no1)n1ccc(C2CCCC2)n1 (stereo partly drawn) [I-114, (1-((1H-tetrazol-5-yl)methyl)-1H-pyrazol-4-yl)(8-(5-(1-(3-cyclopentyl-1H-pyrazol-1-yl)ethyl)-1,2,4-oxadiazol-3-yl)-2-((S)-2,2-dimethylcyclopropane-1-carbonyl)-2,6-diazaspiro[3.4]octan-6-yl)methanone] |  | 0.5 to 5 | > 10
4 | CC(c1nc(C2CN(C(=O)c3cnc(O)cn3)CC23CN(C(=O)C2(C(F)(F)F)CC2)C3)no1)n1ccc(C2CCOCC2)n1 (stereo not shown) [I-115] | 5 to 10 | 0.5 to 5 | 
5 | CC(c1nc(C2CN(C(=O)c3cnc(O)cn3)CC23CN(C(=O)[C@H]2CC2(F)F)C3)no1)n1ccc(C2CCOCC2)n1 (stereo partly drawn) [I-116, (2-((R)-2,2-difluorocyclopropane-1-carbonyl)-8-(5-(1-(3-(tetrahydro-2H-pyran-4-yl)-1H-pyrazol-1-yl)ethyl)-1,2,4-oxadiazol-3-yl)-2,6-diazaspiro[3.4]octan-6-yl)(5-hydroxypyrazin-2-yl)methanone] | > 10 | > 10 | 
6 | COC(=O)c1ccc(Cn2cc(C(=O)N3CC(c4noc(C(C)n5ccc(C6CCCC6)n5)n4)C4(C3)CN(C(=O)[C@H]3CC3(C)C)C4)cn2)cn1 (stereo partly shown) [I-117] | > 10 | 0.5 to 5 | 
7 | CC(c1nc(C2CN(C(=O)c3cnn(CC#N)c3)CC23CN(C(=O)[C@H]2CC2(C)C)C3)no1)n1ccc(C2CCCC2)n1 (stereo partly drawn) [I-119, 2-(4-(8-(5-(1-(3-cyclopentyl-1H-pyrazol-1-yl)ethyl)-1,2,4-oxadiazol-3-yl)-2-((S)-2,2-dimethylcyclopropane-1-carbonyl)-2,6-diazaspiro[3.4]octane-6-carbonyl)-1H-pyrazol-1-yl)acetonitrile] | > 10 | 0.5 to 5 | 
8 | O=C(c1cc(O)n[nH]1)N1CC(c2nnc(C(F)(F)c3ccc(Cl)c(Cl)c3)o2)C2(C1)CN(C(=O)[C@H]1CC1(F)F)C2 (stereo partly drawn) [I-120, (8-(5-((3,4-dichlorophenyl)difluoromethyl)-1,3,4-oxadiazol-2-yl)-2-((R)-2,2-difluorocyclopropane-1-carbonyl)-2,6-diazaspiro[3.4]octan-6-yl)(3-hydroxy-1H-pyrazol-5-yl)methanone] | > 10 | > 10 | 
9 | CC(c1nc(C2CN(C(=O)c3cnn(Cc4ccc(-c5nnn[nH]5)cc4)c3)CC23CN(C(=O)[C@H]2CC2(C)C)C3)no1)n1ccc(C2CCCC2)n1 (stereo partly drawn) [I-121, (1-(4-(1H-tetrazol-5-yl)benzyl)-1H-pyrazol-4-yl)(8-(5-(1-(3-cyclopentyl-1H-pyrazol-1-yl)ethyl)-1,2,4-oxadiazol-3-yl)-2-((S)-2,2-dimethylcyclopropane-1-carbonyl)-2,6-diazaspiro[3.4]octan-6-yl)methanone] | > 10 | 0.5 to 5 | 
10 | CC(c1nc(C2CN(C(=O)c3cnn(Cc4ccc(C(=O)O)c(O)c4)c3)CC23CN(C(=O)[C@H]2CC2(C)C)C3)no1)n1ccc(C2CCCC2)n1 (stereo partly drawn) [I-122, 4-((4-(8-(5-(1-(3-cyclopentyl-1H-pyrazol-1-yl)ethyl)-1,2,4-oxadiazol-3-yl)-2-((S)-2,2-dimethylcyclopropane-1-carbonyl)-2,6-diazaspiro[3.4]octane-6-carbonyl)-1H-pyrazol-1-yl)methyl)-2-hydroxybenzoic acid] | > 10 | 5 to 10 | 
11 | CC(c1nc(C2CN(C(=O)c3cnn(Cc4ccccc4C(=O)O)c3)CC23CN(C(=O)[C@H]2CC2(C)C)C3)no1)n1ccc(C2CCCC2)n1 (stereo partly shown) [I-123] | > 10 | ≤ 0.5 | 
12 | CC(c1nc(C2CN(C(=O)c3cnn(Cc4ccc(OC(C)(C)C(=O)O)cc4)c3)CC23CN(C(=O)[C@H]2CC2(C)C)C3)no1)n1ccc(C2CCCC2)n1 (stereo partly shown) [I-124] | > 10 | 0.5 to 5 | 
13 | CC(c1nc(C2CN(C(=O)c3cnn(Cc4ccc(C#N)cc4)c3)CC23CN(C(=O)C2(C(F)(F)F)CC2)C3)no1)n1ccc(C(F)(F)F)n1 (stereo not shown) [I-207] | > 10 | > 10 | 
14 | C=CC(=O)N(C)c1cccc(Cc2ccc(Cn3cc(C(=O)N4CC(c5nnc(C(F)(F)c6ccc(Cl)c(Cl)c6)o5)C5(C4)CN(C(=O)C4(C(F)(F)F)CC4)C5)cn3)cc2)c1 (stereo not shown) [I-208] | > 10 | > 10 | 
15 | O=C(c1cnc(O)cn1)N1CC(c2nnc(C(C(=O)N3CCC(c4nccs4)CC3)c3ccc(C4CCOCC4)cc3)o2)C2(C1)CN(C(=O)C1(C(F)(F)F)CC1)C2 (stereo not shown) [I-209] | ≤ 0.5 | > 10 | 
16 | CC(c1nc(C2CN(C(=O)c3cnn(Cc4ccc(C#N)cc4)c3)CC23CN(C(=O)C2(C(F)(F)F)CC2)C3)no1)n1ccc(C2CCC(F)(F)CC2)n1 (stereo not shown) [I-210] | ≤ 0.5 | 0.5 to 5 | 
17 | O=C(c1cnn(Cc2ccc(C(F)(F)F)cc2)c1)N1CC(c2noc(N(Cc3ccc(Cl)c(Cl)c3)CC3CCOCC3)n2)C2(C1)CN(C(=O)C1(C(F)(F)F)CC1)C2 (stereo not shown) [I-213, (8-(5-((3,4-dichlorobenzyl)((tetrahydro-2H-pyran-4-yl)methyl)amino)-1,2,4-oxadiazol-3-yl)-2-(1-(trifluoromethyl)cyclopropane-1-carbonyl)-2,6-diazaspiro[3.4]octan-6-yl)(1-(4-(trifluoromethyl)benzyl)-1H-pyrazol-4-yl)methanone] | 5 to 10 | > 10 | 
18 | CC(c1nc(C2CN(C(=O)c3cnn(Cc4ccc(C#N)cc4C(=O)O)c3)CC23CN(C(=O)C2(C(F)(F)F)CC2)C3)no1)n1ccc(C2(C(F)(F)F)CC2)n1 (stereo not shown) [I-214] | > 10 | 0.5 to 5 | 
19 | COC(=O)c1cc(C#N)ccc1Cn1cc(C(=O)N2CC(c3noc(C(C)n4ccc(C5(C(F)(F)F)CC5)n4)n3)C3(C2)CN(C(=O)C2(C(F)(F)F)CC2)C3)cn1 (stereo not shown) [I-215] | 5 to 10 | 0.5 to 5 | 
20 | O=C(c1cnn(Cc2ccc(C(F)(F)F)cc2)c1)N1CC(c2nnc(C(C(=O)N3CCC(c4nccs4)CC3)c3ccc(C4CCOCC4)cc3)o2)C2(C1)CN(C(=O)C1(C(F)(F)F)CC1)C2 (stereo not shown) [I-216, 2-(4-(tetrahydro-2H-pyran-4-yl)phenyl)-1-(4-(thiazol-2-yl)piperidin-1-yl)-2-(5-(6-(1-(4-(trifluoromethyl)benzyl)-1H-pyrazole-4-carbonyl)-2-(1-(trifluoromethyl)cyclopropane-1-carbonyl)-2,6-diazaspiro[3.4]octan-8-yl)-1,3,4-oxadiazol-2-yl)ethan-1-one] | 0.5 to 5 | ≤ 0.5 | 
21 | CC(c1nc(C2CN(C(=O)c3cnn(Cc4ccc(C(F)(F)F)cc4)c3)CC23CN(C(=O)C2(C(F)(F)F)CC2)C3)no1)n1ccc(C23CCC(CC2)OC3)n1 (stereo not shown) [I-217, (8-(5-(1-(3-(2-oxabicyclo[2.2.2]octan-4-yl)-1H-pyrazol-1-yl)ethyl)-1,2,4-oxadiazol-3-yl)-2-(1-(trifluoromethyl)cyclopropane-1-carbonyl)-2,6-diazaspiro[3.4]octan-6-yl)(1-(4-(trifluoromethyl)benzyl)-1H-pyrazol-4-yl)methanone] | 5 to 10 | 0.5 to 5 | 
22 | CC(c1nc(C2CN(C(=O)c3cnn(Cc4ccc(C(F)(F)F)cc4C(=O)O)c3)CC23CN(C(=O)C2(C(F)(F)F)CC2)C3)no1)n1ccc(C2(C(F)(F)F)CC2)n1 (stereo not shown) [I-218, 5-(trifluoromethyl)-2-((4-(2-(1-(trifluoromethyl)cyclopropane-1-carbonyl)-8-(5-(1-(3-(1-(trifluoromethyl)cyclopropyl)-1H-pyrazol-1-yl)ethyl)-1,2,4-oxadiazol-3-yl)-2,6-diazaspiro[3.4]octane-6-carbonyl)-1H-pyrazol-1-yl)methyl)benzoic acid] | > 10 | > 10 | 
23 | COC(=O)c1cc(C(F)(F)F)ccc1Cn1cc(C(=O)N2CC(c3noc(C(C)n4ccc(C5(C(F)(F)F)CC5)n4)n3)C3(C2)CN(C(=O)C2(C(F)(F)F)CC2)C3)cn1 (stereo not shown) [I-219, methyl 5-(trifluoromethyl)-2-((4-(2-(1-(trifluoromethyl)cyclopropane-1-carbonyl)-8-(5-(1-(3-(1-(trifluoromethyl)cyclopropyl)-1H-pyrazol-1-yl)ethyl)-1,2,4-oxadiazol-3-yl)-2,6-diazaspiro[3.4]octane-6-carbonyl)-1H-pyrazol-1-yl)methyl)benzoate] | > 10 | > 10 | 
